The values below come from ChEMBL document CHEMBL1909046, “DrugMatrix in vitro pharmacology data”.

Each structure is given as a SMILES string. pIC50, pKi: −log10 of the molar value.

The target of one series is Cannabinoid receptor 1 (Homo sapiens, UniProt P21554). It is filed as cell membranes, Chem-1, Membrane. The conditions noted are these: chem-1. Further: in other assays of this panel Not Active means under 50% inhibition at 10 µM.
The target of series [1] is T1, C-C chemokine receptor type 4 (Homo sapiens, UniProt P51679). Further: in other assays of this panel Not Active means under 50% inhibition at 10 µM.
T1 sequence (P51679 whole entry): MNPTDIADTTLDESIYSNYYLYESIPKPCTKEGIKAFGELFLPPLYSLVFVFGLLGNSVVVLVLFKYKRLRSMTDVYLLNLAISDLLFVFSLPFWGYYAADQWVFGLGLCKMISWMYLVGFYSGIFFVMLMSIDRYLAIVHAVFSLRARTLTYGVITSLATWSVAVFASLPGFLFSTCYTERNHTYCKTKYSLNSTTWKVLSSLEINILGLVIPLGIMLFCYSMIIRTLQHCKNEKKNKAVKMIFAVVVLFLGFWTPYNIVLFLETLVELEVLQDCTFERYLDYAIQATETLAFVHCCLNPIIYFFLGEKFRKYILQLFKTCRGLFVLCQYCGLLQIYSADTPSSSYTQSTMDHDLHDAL
It is filed as cell membranes, Membrane. The conditions noted are these: chem-1.

In a further series the target is T2, D(4) dopamine receptor (Homo sapiens, UniProt P21917).
T2 sequence (P21917 whole entry): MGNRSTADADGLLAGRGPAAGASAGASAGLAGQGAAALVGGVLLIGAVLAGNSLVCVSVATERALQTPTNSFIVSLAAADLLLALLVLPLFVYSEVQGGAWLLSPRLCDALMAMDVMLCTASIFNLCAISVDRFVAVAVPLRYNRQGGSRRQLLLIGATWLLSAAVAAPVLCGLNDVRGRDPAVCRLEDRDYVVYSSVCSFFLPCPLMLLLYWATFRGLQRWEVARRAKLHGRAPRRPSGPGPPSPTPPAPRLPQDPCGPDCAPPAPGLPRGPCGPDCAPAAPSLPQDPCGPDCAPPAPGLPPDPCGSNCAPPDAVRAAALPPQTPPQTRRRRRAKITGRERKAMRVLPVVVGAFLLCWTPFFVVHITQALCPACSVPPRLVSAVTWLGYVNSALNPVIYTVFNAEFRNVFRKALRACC
As to the kind of experiment: DRUGMATRIX: Dopamine D4.2 radioligand binding (ligand: [3H] Spiperone). It is filed as cell membranes, Membrane. The conditions noted are these: cho-k1; Not Active = under 50% inhibition at 10 µM.

Series [2] in a line: DRUGMATRIX: Interleukin IL-1 radioligand binding (ligand: [125I] interleukin 1beta). The conditions noted are these: nih3t3; Not Active = under 50% inhibition at 10 µM. It is filed as cell membranes, Membrane.
Series [3] in a line: DRUGMATRIX: Phosphodiesterase PDE4 enzyme inhibition (substrate: [3H]cAMP + cAMP). The conditions noted are these: u-937; Not Active = under 50% inhibition at 10 µM.
A short description of series [4]: DRUGMATRIX: Platelet-Derived Growth Factor (PDGF) radioligand binding (ligand: [125I] PDGF). It is filed as cell-based. The conditions noted are these: nih3t3; Not Active = under 50% inhibition at 10 µM.
The target of the next series is T3, Progesterone receptor (Bos taurus, UniProt Q690N0).
T3 sequence (Q690N0 whole entry): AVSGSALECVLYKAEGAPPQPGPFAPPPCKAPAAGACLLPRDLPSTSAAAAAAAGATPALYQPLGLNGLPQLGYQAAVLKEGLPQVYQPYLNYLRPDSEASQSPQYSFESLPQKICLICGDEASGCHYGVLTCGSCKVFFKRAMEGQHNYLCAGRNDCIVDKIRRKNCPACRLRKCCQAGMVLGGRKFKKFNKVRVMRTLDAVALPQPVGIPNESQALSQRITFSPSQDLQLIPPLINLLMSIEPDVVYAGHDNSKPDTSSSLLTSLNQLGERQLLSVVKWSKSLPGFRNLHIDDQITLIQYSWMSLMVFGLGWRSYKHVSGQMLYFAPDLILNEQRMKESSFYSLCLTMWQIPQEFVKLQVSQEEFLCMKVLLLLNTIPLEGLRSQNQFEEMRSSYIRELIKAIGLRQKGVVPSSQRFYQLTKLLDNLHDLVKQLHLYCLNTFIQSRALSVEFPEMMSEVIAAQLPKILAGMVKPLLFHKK
Put plainly: DRUGMATRIX: Progesterone radioligand binding (ligand: [3H] R-5020). It is filed as tissue-based, Uterus. The conditions noted are these: Not Active = under 50% inhibition at 10 µM; for pIC50: read-out: IC50; for pKi: read-out: Ki.

Series [5] deals with Voltage-gated inwardly rectifying potassium channel KCNH2 (Homo sapiens, UniProt Q12809). The conditions noted are these: hek293.
Sequence of Voltage-gated inwardly rectifying potassium channel KCNH2 (Q12809 whole entry): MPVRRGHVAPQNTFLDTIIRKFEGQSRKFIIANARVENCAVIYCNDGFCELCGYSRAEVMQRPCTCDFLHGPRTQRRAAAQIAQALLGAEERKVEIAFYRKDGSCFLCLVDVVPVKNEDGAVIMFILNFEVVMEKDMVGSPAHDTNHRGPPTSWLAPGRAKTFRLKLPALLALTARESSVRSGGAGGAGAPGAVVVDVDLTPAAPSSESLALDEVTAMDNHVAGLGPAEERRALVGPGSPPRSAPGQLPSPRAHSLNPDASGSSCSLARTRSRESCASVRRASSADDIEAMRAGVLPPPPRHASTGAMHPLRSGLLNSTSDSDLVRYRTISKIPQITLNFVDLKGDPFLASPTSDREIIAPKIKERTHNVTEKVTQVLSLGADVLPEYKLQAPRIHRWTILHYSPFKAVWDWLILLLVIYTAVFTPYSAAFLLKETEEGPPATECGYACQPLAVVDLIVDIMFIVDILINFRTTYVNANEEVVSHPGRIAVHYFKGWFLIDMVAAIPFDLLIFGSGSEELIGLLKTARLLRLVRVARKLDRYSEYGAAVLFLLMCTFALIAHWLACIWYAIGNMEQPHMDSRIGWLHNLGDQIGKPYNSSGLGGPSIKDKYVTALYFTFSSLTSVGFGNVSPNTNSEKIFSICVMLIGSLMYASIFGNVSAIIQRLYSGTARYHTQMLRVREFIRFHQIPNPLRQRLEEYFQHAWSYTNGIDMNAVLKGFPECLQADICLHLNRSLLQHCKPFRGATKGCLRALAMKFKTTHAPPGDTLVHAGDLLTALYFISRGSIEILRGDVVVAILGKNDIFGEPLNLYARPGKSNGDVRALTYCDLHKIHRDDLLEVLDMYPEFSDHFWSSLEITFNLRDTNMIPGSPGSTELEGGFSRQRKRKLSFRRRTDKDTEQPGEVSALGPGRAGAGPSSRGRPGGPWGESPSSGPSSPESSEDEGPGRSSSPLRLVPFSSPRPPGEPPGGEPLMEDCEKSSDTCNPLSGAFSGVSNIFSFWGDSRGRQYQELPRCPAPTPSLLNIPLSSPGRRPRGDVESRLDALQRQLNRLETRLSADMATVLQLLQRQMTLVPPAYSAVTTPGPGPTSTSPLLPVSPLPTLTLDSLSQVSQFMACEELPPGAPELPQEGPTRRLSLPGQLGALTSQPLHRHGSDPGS

Sequence of Cannabinoid receptor 1 (P21554 whole entry): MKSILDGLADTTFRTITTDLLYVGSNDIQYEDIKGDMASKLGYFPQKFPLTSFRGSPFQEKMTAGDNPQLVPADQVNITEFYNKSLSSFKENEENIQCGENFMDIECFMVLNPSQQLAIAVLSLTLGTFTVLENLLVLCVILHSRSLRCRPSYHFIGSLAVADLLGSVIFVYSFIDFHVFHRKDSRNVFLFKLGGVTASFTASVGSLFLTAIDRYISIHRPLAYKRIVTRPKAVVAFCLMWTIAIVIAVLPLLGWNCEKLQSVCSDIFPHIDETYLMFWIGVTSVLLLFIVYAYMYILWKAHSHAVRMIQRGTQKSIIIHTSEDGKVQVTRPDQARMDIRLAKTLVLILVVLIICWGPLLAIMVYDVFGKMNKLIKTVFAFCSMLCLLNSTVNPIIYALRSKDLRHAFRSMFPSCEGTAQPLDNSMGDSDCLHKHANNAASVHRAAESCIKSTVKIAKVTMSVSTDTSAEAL

On to `CCN1CC(CCN2CCOCC2)C(c2ccccc2)(c2ccccc2)C1=O` (stereo not drawn) [DOXAPRAM], for which the IC50 result (at Cannabinoid receptor 1; in series [1]; at D(4) dopamine receptor; in series [2]; in series [3]; in series [4]) was “Not Active” throughout. The IC50 result (at Progesterone receptor; in series [5]) was “Not Active” throughout. Also, the Ki result in series [2], in series [3], in series [4] and in series [5] was “Not Active” throughout.
Turning to `Cn1c(=O)c2c(ncn2CC2OCCO2)n(C)c1=O` [DOXOFYLLINE], the IC50 entry (at Cannabinoid receptor 1; in series [1]; at D(4) dopamine receptor; in series [2]; in series [3]; in series [4]) was “Not Active” throughout. Further, the IC50 entry (on Progesterone receptor; in series [5]) was “Not Active” throughout. Further, the Ki result in series [2], in series [3], in series [4] and in series [5] was “Not Active” each time.
Consider `COc1cccc2c1C(=O)c1c(O)c3c(c(O)c1C2=O)C[C@@](O)(C(=O)CO)C[C@@H]3O[C@H]1C[C@H](N)[C@H](O)[C@H](C)O1` [DOXORUBICIN], for which the IC50 entry (on Cannabinoid receptor 1; in series [1]; on D(4) dopamine receptor; in series [2]; in series [3]; in series [4]) was “Not Active” each time. Further, the IC50 entry (on Progesterone receptor; in series [5]) was “Not Active” in each case. Besides, the Ki entry in series [2], in series [3], in series [4] and in series [5] was “Not Active” in each case.
In the case of `COc1cccc2c1C(=O)c1c(O)c3c(c(O)c1C2=O)C[C@@](O)(C(=O)CO)C[C@@H]3O[C@H]1C[C@H](N)[C@@H](O)[C@H](C)O1` [EPIRUBICIN], the IC50 result (against Cannabinoid receptor 1; in series [1]; at D(4) dopamine receptor; in series [2]; in series [3]; in series [4]) was “Not Active” each time. Further, the IC50 result (on Progesterone receptor; in series [5]) was “Not Active” in each case. For the same compound, the Ki result in series [2], in series [3], in series [4] and in series [5] was “Not Active” throughout.
`C[C@]12CC[C@@H]3c4ccc(OC(=O)c5ccccc5)cc4CC[C@H]3[C@@H]1CC[C@@H]2O` [ESTRADIOL BENZOATE]: the IC50 result (against Cannabinoid receptor 1; in series [1]; on D(4) dopamine receptor; in series [2]; in series [3]; in series [4]) was “Not Active” each time. In addition, the IC50 entry in series [5] is “Not Active”. Further, the Ki result in series [2], in series [3], in series [4] and in series [5] was “Not Active” throughout. Moreover, at Progesterone receptor, the pIC50 is 5.02. Also, at Progesterone receptor, the pKi is 5.90.
Take `CC[C@@H](CO)NCCN[C@@H](CC)CO` [ETHAMBUTOL]: the IC50 entry (at Cannabinoid receptor 1; in series [1]; at D(4) dopamine receptor; in series [2]; in series [3]; in series [4]) was “Not Active” throughout. The IC50 result (on Progesterone receptor; in series [5]) was “Not Active” in each case. The Ki entry in series [2], in series [3], in series [4] and in series [5] was “Not Active” each time.
Take `CC1(C)O[C@@H]2C[C@H]3[C@@H]4C[C@H](F)C5=CC(=O)C=C[C@]5(C)[C@H]4[C@@H](O)C[C@]3(C)[C@]2(C(=O)CO)O1` [FLUNISOLIDE]: the IC50 result (against Cannabinoid receptor 1; in series [1]; on D(4) dopamine receptor; in series [2]; in series [3]; in series [4]) was “Not Active” in each case. Further, the IC50 result in series [5] is reported as “Not Active”. For the same compound, the Ki result in series [2], in series [3], in series [4] and in series [5] was “Not Active” throughout. Moreover, on Progesterone receptor, the pIC50 was 6.44. Further, the pKi at Progesterone receptor is 7.33.
For `CC1(C)O[C@@H]2C[C@H]3[C@@H]4C[C@H](F)C5=CC(=O)C=C[C@]5(C)[C@@]4(F)[C@@H](O)C[C@]3(C)[C@]2(C(=O)CO)O1` [FLUOCINOLONE ACETONIDE], the IC50 entry (at Cannabinoid receptor 1; in series [1]; on D(4) dopamine receptor; in series [2]; in series [3]; in series [4]) was “Not Active” throughout. For the same compound, the IC50 result in series [5] is listed as “Not Active”. The Ki result in series [2], in series [3], in series [4] and in series [5] was “Not Active” each time. The pIC50 at Progesterone receptor was 7.59. Besides, on Progesterone receptor, the pKi was 8.48.
For the compound `CC1(C)O[C@@H]2C[C@H]3[C@@H]4C[C@H](F)C5=CC(=O)CC[C@]5(C)[C@H]4[C@@H](O)C[C@]3(C)[C@]2(C(=O)CO)O1` [FLURANDRENOLIDE], the IC50 entry (at Cannabinoid receptor 1; in series [1]; on D(4) dopamine receptor; in series [2]; in series [3]; in series [4]) was “Not Active” in each case. For the same compound, the IC50 entry in series [5] was “Not Active”. For the same compound, the Ki entry in series [2], in series [3], in series [4] and in series [5] was “Not Active” throughout. In addition, the pIC50 on Progesterone receptor is 6.76. Besides, the pKi on Progesterone receptor is 7.66.
With `CN(C)c1ccc(C(=C2C=CC(=[N+](C)C)C=C2)c2ccc(N(C)C)cc2)cc1.[Cl-]` [GENTIAN VIOLET], the IC50 result (against Cannabinoid receptor 1; in series [1]; on D(4) dopamine receptor; in series [2]; in series [3]; in series [4]) was “Not Active” each time. Besides, the IC50 result (at Progesterone receptor; in series [5]) was “Not Active” throughout. The Ki result in series [2], in series [3], in series [4] and in series [5] was “Not Active” each time.
Regarding `Cc1ccc(S(=O)(=O)NC(=O)NN2CC3CCCC3C2)cc1` (stereo not drawn) [GLICLAZIDE], the IC50 entry (against Cannabinoid receptor 1; in series [1]; on D(4) dopamine receptor; in series [2]; in series [3]; in series [4]) was “Not Active” each time. The IC50 entry (at Progesterone receptor; in series [5]) was “Not Active” throughout. In addition, the Ki result in series [2], in series [3], in series [4] and in series [5] was “Not Active” in each case.
For the compound `NC(=O)NO` [HYDROXYUREA], the IC50 result (against Cannabinoid receptor 1; in series [1]; at D(4) dopamine receptor; in series [2]; in series [3]; in series [4]) was “Not Active” each time. For the same compound, the IC50 entry (on Progesterone receptor; in series [5]) was “Not Active” throughout. In addition, the Ki entry in series [2], in series [3], in series [4] and in series [5] was “Not Active” in each case.
